The values that follow are results of earlier work, collected in patent US20250064896A1, “METHODS, COMPOSITIONS AND USES FOR TREATING CANCER BY PROVIDING MEDICATIONS THAT INDUCE TARGETED TUMOR CELL MITOSIS BEFORE PROVIDING CHEMOTHERAPY OR RADIATION AND KITS THEREFOR” (MAISON AMORI OQVPO LLC, priority 2022, published 2025).

What is called half-life is the time in which the quantity being followed falls by half.

Each structure is given as a SMILES string. Like-named read-outs stand apart in the source and are kept apart here.

The conditions of data set [1]: patients randomized to bicalutamide versus placebo.
The subject of data set [2] is metastatic hormone sensitive prostate cancer (MHSPC). The following applies: for median actuarial freedom from Castrate Resistant Prostate Cancer (CRPC): p=0.04; for overall survival: p=0.2.
For data set [3], the system named is locally advanced prostate cancer. As to conditions: goserelin 3.6 mg every 4 weeks and flutamide 250 mg tid, 2 months before and concurrent with RT.
For data set [4] the test system is unchanged.
The test system is the same in data set [5]. As to conditions: for overall survival at 5 years: P=0.73.
Data set [6] concerns prostate cancer (salvage setting). As to conditions: goserelin provided on the first day of radiation.
The subject of data set [7] is testosterone levels. As to conditions: week 2 from initiation of leuprolide; injections once every 3 months; advanced prostate cancer.
Data set [8] concerns testosterone levels.
Data set [9] deals with serum concentrations of LH and testosterone.
For data set [10] the following is noted: in vivo.
Data set [11] concerns metastatic adenocarcinoma of the prostate.
For data set [12] the following is noted: in vivo. The source holds these as a separate data set.
The mark [13] stands for this setting: arm I: irradiation plus goserelin started in the last week of radiation.

For the molecule `CC(O)(CS(=O)(=O)c1ccc(F)cc1)C(=O)Nc1ccc(C#N)c(C(F)(F)F)c1` (centres unmarked) [bicalutamide], in [1], the “erectile dysfunction compared to placebo” value is “non-statistically significant difference”.
For the molecule `CC(=O)O[C@@]12CO[C@@H]1C[C@H](O)[C@@]1(C)C(=O)[C@H](O)C3=C(C)[C@@H](OC(=O)[C@H](O)[C@@H](NC(=O)OC(C)(C)C)c4ccccc4)C[C@@](O)([C@@H](OC(=O)c4ccccc4)[C@H]21)C3(C)C` [docetaxel], the “overall survival versus LHRH therapy alone” value in data set [2] (docetaxel given at the beginning of LHRH therapy, MHSPC) is reported as “significantly longer”. Besides, the figures for the “median actuarial freedom from Castrate Resistant Prostate Cancer (CRPC)” value in data set [2] (docetaxel started 1-6 days from LHRH initiation) and in [2] (docetaxel started >14 days from LHRH initiation) were 51 months and 18 months, respectively. Further, the overall survival in data set [2] (docetaxel started 1-6 days from initiation of LHRH agonist) is on record as 72 months; in [2] (docetaxel started >14 days from initiation of LHRH agonist) it was 57 months.
Turning to `CC(C)C[C@H](NC(=O)[C@@H](COC(C)(C)C)NC(=O)[C@H](Cc1ccc(O)cc1)NC(=O)[C@H](CO)NC(=O)[C@H](Cc1c[nH]c2ccccc12)NC(=O)[C@H](Cc1cnc[nH]1)NC(=O)[C@@H]1CCC(=O)N1)C(=O)N[C@@H](CCCNC(=N)N)C(=O)N1CCC[C@H]1C(=O)NNC(N)=O` [goserelin], the “survival, combined ADT with RT versus RT alone” value in data set [3] is “no significant difference”. In addition, the 10-year overall survival in data set [4] (combined treatment, radiotherapy alone 39.8%, p=0.0004) is 58.1%. The “survival, hormonal therapy added to radiation compared to radiation alone” value in data set [4] (external irradiation plus goserelin) is “survival benefit”. In addition, the five-year overall survival in data set [4] (irradiation plus goserelin from first day for 3 years, antiandrogen for 1 month, radiotherapy alone 62%, p=0.0002) is given as 78%. Besides, the “10-year absolute survival rate” value with prostate cancer (arm 1 versus control arm 39%, p=0.002) is 49%. In addition, the “5-year absolute survival rate” value with prostate cancer (setting [13]) is recorded as 72%. In the data set on prostate cancer (setting [13]), the “9-year absolute survival rate” value was 62%. Further, the “overall survival at 5 years” value in data set [5] (24 months of goserelin after 4 months of goserelin and flutamide with RT) is given as 80.0%; in [5] (no further treatment after 4 months of goserelin and flutamide with RT) it was 78.5%. Also, the “overall survival between the two treatment arms” value in data set [5] (24 months of goserelin versus no further treatment) is listed as “not significantly different”. Also, in data set [6], the “survival, ADT in the salvage setting” value is on record as “survival benefit”.
Turning to `CCNC(=O)[C@@H]1CCCN1C(=O)[C@H](CCCNC(=N)N)NC(=O)[C@H](CC(C)C)NC(=O)[C@@H](CC(C)C)NC(=O)[C@H](Cc1ccc(O)cc1)NC(=O)[C@H](CO)NC(=O)[C@H](Cc1c[nH]c2ccccc12)NC(=O)[C@H](Cc1c[nH]cn1)NC(=O)[C@@H]1CCC(=O)N1` [leuprolide], the “testosterone levels higher compared to baseline” value in the data set on testosterone levels [7] is on record as “about 50%”. Also, the “median testosterone levels remained above castrate levels (0.5 ng/ml) until” value with testosterone levels [8] (after initiation of leuprolide) was 21 days. Further, the “median testosterone levels increase from baseline” value in the data set on testosterone levels [8] (by day 3 after initiation of monthly leuprolide, P<0.001) is listed as 65%. The median testosterone level in the data set on testosterone levels [8] (day 3 after initiation of leuprolide) is 6.30 ng/mL. For the same molecule, the “duration of elevation of testosterone levels” value in [9] (after LHRH analogue application) is on record as 7 days. For the same molecule, the “duration of increase in relative LH values” in data set [9] (after LHRH analogue injection) was 7 days. Also, the maximum testosterone level in data set [9] (day 2 after LHRH analogue application) was 145±13%. In addition, the “maximum relative LH value” in data set [9] (day 2 after LHRH analogue injection, means±standard error, 16 patients with advanced prostatic cancer) was 345±108%. Besides, the “leuprolide blood levels, intranasal versus intravenous route” value in data set [10] is listed as “much lower”.
For `C[C@]12CC[C@H]3[C@@H](CCC4=CC(=O)CC[C@@]43C)[C@@H]1CC[C@@H]2O` [testosterone], in [11] (52 patients treated with exogenous testosterone daily), the “patients with unfavorable subjective and/or objective responses” value was 87%. In [11] (eight cases of 52 patients), the “serious morbidity or mortality, seemingly due to the testosterone administration” value is 15%. Besides, the half-life in [12] was 170 h.
